Measurements published in patent US20240124504A1, “AROMATIC HETEROCYCLIC COMPOUND, AND PHARMACEUTICAL COMPOSITION AND APPLICATION THEREOF” (GT APEIRON THERAPEUTICS LIMITED, priority 2020, published 2024).

Tests used:
CDK2/cyclinE1 complex = CDK2/cyclinE1 complex (Homo sapiens, UniProt P24941); test: In-vitro enzymatic inhibitory activity testing, CDK2 inhibition assay (Caliper EZ Reader II); format: biochemical; details: CDK2/cyclinE1 0.5 nM, 180 min at 27° C.
Summary of the method: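 CDK2/cyclinE1 (0.5 nM) phosphorylated 5-FAM-CDK7tide (2 μM) in MES buffer pH 6.5 with MgCl2, Tween 20 and BSA. Substrate and product were separated electrophoretically on a Caliper EZ Reader II. IC50 values came from nonlinear dose-response fits.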

[1] = test system: human breast cancer cells HCC70; test: Cell biological activity detection (CyQuant, 72 hours), HCC70; format: cell-based; details: Homo sapiens, HCC70, 72 h, incubation for 72 hours
Summary of the method: (§1)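 IC50 derived from CyQuant Direct nuclear staining (488 nm excitation) after 72 h compound exposure at 37 °C, 5% CO2. Compounds tested in 9 concentrations from 10 μM, 1:4 steps, 0.2% DMSO, on A2780 or HCC70 cells plated overnight at 2000/well in RPMI 1640 + 10% FBS.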

ovarian cancer A2780 = test: Cell biological activity detection (CyQuant, 72 hours), A2780; format: cell-based, human; details: Homo sapiens, A2780, 72 h, A2780 cells, incubation for 72 hours
Summary of the method: as §1

[2] = Caco-2 membrane permeability and efflux rate; format: in vitro ADME; details: human, Caco-2, Caco-2, 5 μM; for Papp B→A at 2 h, 5 μM: basal end to top end; for efflux ratio at 2 h, 5 μM: read-out: ER (efflux rate); for Papp A→B at 2 h, 5 μM: top end to basal end
Protocol: The recovered Caco-2 cell suspension was seeded into a […] plate and cultured for 14-18 days. After being cultured for 14 days, the cells were fused and differentiated to be ready for a transport experiment. The Caco-2 cell plate was taken out from the incubator. Stock solutions of a to-be-tested compound and a control compound were formulated with DMSO and diluted with an HBSS (10 mM HEPES, pH 7.4) buffer to a final concentration of 5 μM. A test compound solution and a control drug solution were added to each well (top end) of an insert culture plate, and the HBSS (10 mM HEPES, pH 7.4) buffer was added to each well of a test compound receiving plate (basal end). When measuring the transport rate of the compound from the basal end to the top end, the test compound solution and the control drug solution were added to each well of the receiving plate (basal end), the HBSS (10 mM HEPES, pH 7.4) buffer solution was added to each well (top end) of the insert culture plate for the test compound solution, and incubation was carried out for 2 hours in a CO2 incubator at 37° C. After the transport experiment was completed, vortexing was carried out for 10 minutes at 1000 rpm. After sample quenching at each time point, LC/MS/MS analysis was carried out. A fluorescence value was measured after a two-hour transport experiment, a lucifer yellow solution was added in a transwell chamber (top end), a transport buffer solution was added in the basal end, and incubation was carried out for 30 minutes in the CO2 incubator at 37° C. The solution was taken out directly from the top end and the basal end (using basolateral wells) and transferred to a new 96-well plate. A cell fluorescence value was measured by a microplate reader (to detect membrane integrity), an excitation wavelength was […], and an emission wavelength was […]. All data were calculated by using Microsoft Excel, and a peak area was calculated according to chromatograms. An apparent permeability coefficient (Papp, unit: 10-6, cm/s) and an efflux rate (ER) of the compounds in Caco-2 cells were calculated by the specific concentrations of a receiving end and an administering end.

[3] = target: CDK7/cyclinH/MAT1 complex (Homo sapiens, UniProt P50613); test: In-vitro enzymatic inhibitory activity testing, CDK7 inhibition assay (Caliper EZ Reader II); format: biochemical; details: CDK7/cyclinH/MAT1 6 nM, 180 min at 27° C.
Summary of the method: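 Enzyme preincubated 10 min with compound, then peptide substrate plus ATP added in 80 mM MES pH 6.5, 10 mM MgCl2 buffer; 180 min at 27 °C, stopped with EDTA.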

CDK7/cyclinH/MAT1 complex, sequence (P50613 whole entry, species assumed): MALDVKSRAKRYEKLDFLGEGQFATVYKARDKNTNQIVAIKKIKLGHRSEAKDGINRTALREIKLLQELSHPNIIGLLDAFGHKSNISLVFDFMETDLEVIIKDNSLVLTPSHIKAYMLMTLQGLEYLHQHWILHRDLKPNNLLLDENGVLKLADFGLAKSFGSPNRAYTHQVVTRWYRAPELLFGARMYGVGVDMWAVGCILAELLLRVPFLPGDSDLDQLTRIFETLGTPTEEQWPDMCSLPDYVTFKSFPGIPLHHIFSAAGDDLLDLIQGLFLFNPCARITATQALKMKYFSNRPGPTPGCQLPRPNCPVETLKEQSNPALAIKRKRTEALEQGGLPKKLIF
CDK7/cyclinH/MAT1 complex, sequence (P51946 whole entry partner, species assumed): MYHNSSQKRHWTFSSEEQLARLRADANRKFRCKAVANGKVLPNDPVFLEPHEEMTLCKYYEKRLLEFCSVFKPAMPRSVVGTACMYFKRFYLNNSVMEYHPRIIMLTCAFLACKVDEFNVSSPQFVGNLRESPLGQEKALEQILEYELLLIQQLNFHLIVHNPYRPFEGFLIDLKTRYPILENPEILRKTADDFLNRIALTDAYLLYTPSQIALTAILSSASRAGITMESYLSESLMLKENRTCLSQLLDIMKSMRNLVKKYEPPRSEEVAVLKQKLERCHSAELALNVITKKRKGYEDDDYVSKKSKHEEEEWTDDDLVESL
CDK7/cyclinH/MAT1 complex, sequence (P51948 whole entry partner, species assumed): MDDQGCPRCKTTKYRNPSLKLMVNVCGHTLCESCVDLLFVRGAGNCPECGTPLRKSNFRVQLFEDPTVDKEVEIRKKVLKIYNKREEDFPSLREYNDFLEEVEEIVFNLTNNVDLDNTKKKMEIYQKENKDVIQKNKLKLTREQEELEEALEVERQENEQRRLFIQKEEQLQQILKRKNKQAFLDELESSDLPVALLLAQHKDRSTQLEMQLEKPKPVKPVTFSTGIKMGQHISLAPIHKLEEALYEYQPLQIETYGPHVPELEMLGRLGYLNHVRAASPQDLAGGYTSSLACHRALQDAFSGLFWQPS

Structure (SMILES) | IC50 (CDK2/cyclinE1 complex) [µM] | IC50 [1] [nM] | IC50 (ovarian cancer A2780) [nM] | Papp B→A at 2 h, 5 μM [2] [×10⁻⁶ cm/s] | efflux ratio at 2 h, 5 μM [2] | Papp A→B at 2 h, 5 μM [2] [×10⁻⁶ cm/s] | IC50 [3] [nM]
CP(C)(=O)c1cccc2c(-c3nc(N[C@@H]4CC[C@H]4O)ncc3C(F)(F)F)c[nH]c12 [Compound 153, (3-(2-(((1R,2R)-2-hydroxycyclobutyl)amino)-5-(trifluoromethyl)pyrimidin-4-yl)-1hydro-indole-7-yl)dimethylphosphine oxide] | 0.2 to 5 | < 20 | 20 to 200 | 24.8 | 5.94 | 4.17 | < 20
CC1(C)COCC(Nc2ncc(C(F)(F)F)c(-c3c[nH]c4c(P(C)(C)=O)cccc34)n2)CN1 (single isomer, unassigned) [Compound 91, (3-(2-((3,3-dimethyl-1,4-oxazepan-6-yl)amino)-5-(trifluoromethyl)pyrimidin-4-yl)-1H-indole-7-yl)dimethylphosphine oxide] | 5 to 50 | 20 to 200 | < 20 | 27.3 | 10.3 | 2.64 | < 20
C[C@@H](CO)Nc1ncc(C(F)(F)F)c(-c2c[nH]c3c(P(C)(C)=O)c(C#N)ccc23)n1 [Compound 79, (S)-7-(dimethylphosphoryl)-3-(2-((1-hydroxy-propan-2-yl)amino)-5-(trifluoromethyl)pyrimidin-4-yl)-1H-indole-6-carbonitrile] | 0.2 to 5 | 20 to 200 | < 20 | 22.3 | 4.38 | 5.1 | < 20
CN(C)[C@H]1CC[C@H](Nc2ncc(C(F)(F)F)c(-c3c[nH]c4c(P(C)(C)=O)cccc34)n2)C1 [Compound 137, (3-(2-(((1S,3S)-3-(dimethylamino)cyclopentyl)amino)-5-(trifluoromethyl)pyrimidin-4-yl)-1H-indole-7-yl)dimethylphosphine oxide] | 0.2 to 5 | < 20 | < 20 | 34.6 | 12.4 | 2.79 | < 20
CC(CO)CNc1ncc(C(F)(F)F)c(-c2c[nH]c3c(P(C)(C)=O)cccc23)n1 (single isomer, unassigned) [Compound 149] | 0.2 to 5 | < 20 | 20 to 200 | 32.8 | 7.8 | 4.2 | < 20
C[C@@H](CO)Nc1ncc(Cl)c(-c2c[nH]c3c(P(C)(C)=O)cccc23)n1 [Compound 103, (S)-(3-(5-chloro-2-((1-hydroxypropan-2-yl)amino)pyrimidin-4-yl)-1H-indole-7-yl)dimethylphosphine oxide] | 0.2 to 5 | 20 to 200 | 20 to 200 | 36.1 | 5.38 | 6.7 | 20 to 200
CC(C)(CO)Nc1ncc(C(F)(F)F)c(-c2c[nH]c3c(P(C)(C)=O)cccc23)n1 [Compound 85, (3-(2-((1-hydroxy-2-methylpropan-2-yl)amino)-5-(trifluoromethyl)pyrimidin-4-yl)-1H-indole-7-yl)dimethylphosphine oxide] | 5 to 50 | 20 to 200 | < 20 | 21.3 | 2.77 | 7.69 | < 20
C[C@@H](CO)Nc1ncc(C(F)(F)F)c(-c2c[nH]c3c(P(C)(C)=O)c(F)ccc23)n1 [Compound 195] | 0.2 to 5 | < 20 | < 20 | 24.4 | 2.36 | 10.3 | < 20
C[C@@H](CO)Nc1ncc(C(F)(F)F)c(-c2c[nH]c3c(P(C)(C)=O)cc(F)cc23)n1 [Compound 158] | 0.2 to 5 | < 20 | < 20 | 28.6 | 5.65 | 5.07 | < 20
CP(C)(=O)c1cccc2c(-c3nc(NC[C@H](F)CO)ncc3C(F)(F)F)c[nH]c12 [Compound 86, (S)-(3-(2-((2-fluoro-3-hydroxypropyl)amino)-5-(trifluoromethyl)pyrimidin-4-yl)-1H-indole-7-yl)dimethylphosphine oxide] | 0.2 to 5 | 20 to 200 | < 20 | 29.5 | 20.5 | 1.44 | < 20
CP(C)(=O)c1cccc2c(-c3nc(N[C@H]4COC[C@@H]4O)ncc3C(F)(F)F)c[nH]c12 [Compound 87] | 0.2 to 5 | < 20 | < 20 | 25.1 | 37.1 | 0.68 | < 20
C[C@@H](CO)Nc1ncc(C(F)(F)F)c(-c2c[nH]c3c(P(C)(C)=O)cccc23)n1 [Compound 82, (S)-(3-(2-((1-hydroxypropyl-2-yl)amino)-5-(trifluoromethyl)pyrimidin-4-yl)-1H-indole-7-yl)dimethylphosphine oxide] | 0.2 to 5 | < 20 | < 20 | 23.6 | 3.95 | 5.32 | < 20
CP(C)(=O)c1cccc2c(-c3nc(NCC4CC(O)C4)ncc3C(F)(F)F)c[nH]c12 (centres unmarked) [Compound 126, (3-(2-(((3-hydroxycyclobutyl)methyl)amino)-5-(trifluoromethyl)pyrimidin-4-yl)-1H-indole-7-yl)dimethylphosphine oxide] | 0.2 to 5 | 20 to 200 | 20 to 200 | 24.6 | 7.41 | 3.32 | < 20
CP(C)(=O)c1cccc2c(-c3nc(NCC(F)(F)CO)ncc3C(F)(F)F)c[nH]c12 [Compound 102, (3-(2-((2,2-difluoro-3-hydroxypropyl)amino)-5-(trifluoromethyl)pyrimidin-4-yl)-1H-indole-7-yl)dimethylphosphine oxide] | 5 to 50 | < 20 | < 20 | 26.8 | 7.8 | 3.43 | < 20
